{"source": "PubChem BioAssay AID1963845", "about": "(Molecular Pharmacology Branch, DTP, NCI, 2024);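 further: luminescence signal used as surrogate measure of viable cells; spheroids exposed to compounds for seven days before readout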;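 on viability, T/C: 100% = DMSO vehicle control viability as luminescence relative to vehicle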", "system": "429239-143-T-J1-PDC complex spheroid viability", "test": "Anticancer human tumor 429239-143-T-J1-PDC patient-derived small cell lung carcinoma cell line growth inhibition [POLQ]", "details": "for IC50: curve of first compound; for viability, T/C: stronger effect = lower value", "procedure": "Multicellular complex tumor spheroid response to Polymerase (POL) inhibitors (novobiocin, ART-558, RP6685) in combination with a variety of drugs and investigational agents in selected tumor cell lines\nThe POL inhibitors (novobiocin, ART-558, and RP6685) were evaluated both individually and in combination with standard of care and investigational anticancer small molecules within a complex spheroid model of solid tumors. . Complex spheroids include a stromal component modeled by human endothelial cells (HUVEC) and fibroblasts modeled by human mesenchymal stem cells (MSCs). The concentration ranges selected for each drug and investigational agent were based upon clinically achievable concentrations if the clinical Cmax of the agent was known.\nCompounds. The drugs and investigational agents: novobiocin (NSC847541), ART-558 (NSC835418), RP-6685 (NSC848927), peposertib (NSC802822), ceralasertib (NSC780249), elimusertib (NSC800525), camonsertib (NSC841442), AZD-1390 (NSC803789), olaparib (NSC753686), talazoparib (NSC767125), rucaparib (NSC756644), sotorasib (NSC818433), MRTX-1133 (NSC836407), SN-38 (NSC673596), topotecan (NSC609699), epotoside (NSC141540), doxorubicin (NSC123127), gemcitabine (NSC613327), 5-fluorouracil (NSC19893), paclitaxel (NSC125973), vemurafenib (NSC761431), MSA-2 (NSC828583), SN-011 (NSC837082), adavosertib (NSC754352), prexasertib (NSC758257), carboplatin (NSC241240) and oxaliplatin (NSC266046), were obtained from the National Cancer Institute (NCI) Developmental Therapeutics Program Chemical Repository (21). The FDA-approved anticancer drug set is available from the Developmental Therapeutics Program at https://dtp.cancer.gov/organization/dscb/obtaining/. […] The stock solutions were prepared in dimethyl sulfoxide (DMSO, Sigma-Aldrich, St. Louis, MO, cat. D2650), except for the platinum compounds which were prepared in saline (Quality Biological, Gaithersburg, MD, cat. 114-055-101), at 800-fold the tested concentration and stored at -70 degrees C prior to their use. All drugs and investigational agents were tested over a range starting from a high concentration at or near the clinical Cmax and decreasing in half-log increments. If the clinical Cmax for an agent had not been determined, the highest concentration tested was 10 microM, except for SN-38, which was tested at a high concentration of 1 microM.\nCell Culture. All cells were maintained in an incubator at 37 degrees C and 5% CO2 with 95% humidity. The PDC lines were cultured according to standard operating procedures established by the NCI PDMR (https://pdmr.cancer.gov). Table 3 of the manuscript, lists the cell lines along with the number of the three cell types plated to form the mct-spheroids and media for tumor cell growth. After thawing, all PDC lines, except 997537-175-T-J1-PDC and 415267-285-R-J2-PDC, were cultured in Matrigel-coated flasks prepared with a working solution of 1X Ham's F-12 nutrient mix, without supplementation (Thermo Fisher Scientific, cat. 11765054), 100 U/mL penicillin-streptomycin (Thermo Fisher Scientific, cat. 15140122), and 2.5% Matrigel (Corning Inc., Corning, NY, cat. 354248) for the first three passages. The two PDC lines 997537-175-T-J1-PDC and 415267-285-R-J2-PDC were cultured on uncoated flasks. The 857933-349-R-J2-PDC line was cultured in 6C/Colon 1B media containing advanced DMEM/F-12 (Thermo Fisher Scientific, cat. 12634028), 10 mM HEPES (Thermo Fisher Scientific, cat. 15630080), 1X GlutaMAX supplement (Thermo Fisher Scientific, cat. 35050061), 0.1 mg/mL primocin (InvivoGen, San Diego, CA, cat. ant-pm-2), 10% defined fetal bovine serum, heat inactivated (HyClone Laboratories Inc., Logan, UT, cat. SH30070.03HI), 50% L-WRN conditioned media (ATCC, cat. CRL-3276), 1.25 mM N-Acetyl-L-cysteine (Sigma-Aldrich, cat. A9165), 10 mM nicotinamide (Sigma-Aldrich, cat. N0636), 1X B-27 supplement (Thermo Fisher Scientific, cat. 17504044), 1X N-2 supplement (Thermo Fisher Scientific, cat. […]"}
{"smiles": "COc1cc(C2c3cc4c(cc3C(OC3OC5COC(C)OC5C(O)C3O)C3COC(=O)C23)OCO4)cc(OC)c1O", "note": "(configuration not stated) + COC1C(OC(N)=O)C(O)C(Oc2ccc3c(O)c(NC(=O)c4ccc(O)c(CC=C(C)C)c4)c(=O)oc3c2C)OC1(C)C", "values": [{"measurement": "IC50", "setting": "second compound 0.0316 µM", "result": 302, "unit": "nM"}, {"measurement": "IC50", "setting": "second compound 0.1 µM", "result": 249, "unit": "nM"}, {"measurement": "IC50", "setting": "second compound 0.316 µM", "result": 417, "unit": "nM"}, {"measurement": "IC50", "setting": "second compound 1 µM", "result": 325, "unit": "nM"}, {"measurement": "IC50", "setting": "second compound 3.16 µM", "result": 349, "unit": "nM"}, {"measurement": "IC50", "setting": "second compound 10 µM", "result": 274, "unit": "nM"}, {"measurement": "viability, T/C", "setting": "second compound 0.0316 µM, first compound 0.0316 µM", "result": 101, "unit": "%"}, {"measurement": "viability, T/C", "setting": "second compound 0.0316 µM, first compound 0.1 µM", "result": 81.2, "unit": "%"}, {"measurement": "viability, T/C", "setting": "second compound 0.0316 µM, first compound 0.316 µM", "result": 53, "unit": "%"}, {"measurement": "viability, T/C", "setting": "second compound 0.0316 µM, first compound 1 µM", "result": 15.8, "unit": "%"}, {"measurement": "viability, T/C", "setting": "second compound 0.0316 µM, first compound 3.16 µM", "result": 18.2, "unit": "%"}, {"measurement": "viability, T/C", "setting": "second compound 0.0316 µM, first compound 10 µM", "result": 16.6, "unit": "%"}, {"measurement": "viability, T/C", "setting": "second compound 0.1 µM, first compound 0.0316 µM", "result": 106, "unit": "%"}, {"measurement": "viability, T/C", "setting": "second compound 0.1 µM, first compound 0.1 µM", "result": 72, "unit": "%"}, {"measurement": "viability, T/C", "setting": "second compound 0.1 µM, first compound 0.316 µM", "result": 47.9, "unit": "%"}, {"measurement": "viability, T/C", "setting": "second compound 0.1 µM, first compound 1 µM", "result": 22, "unit": "%"}, {"measurement": "viability, T/C", "setting": "second compound 0.1 µM, first compound 3.16 µM", "result": 18.2, "unit": "%"}, {"measurement": "viability, T/C", "setting": "second compound 0.1 µM, first compound 10 µM", "result": 18.1, "unit": "%"}, {"measurement": "viability, T/C", "setting": "second compound 0.316 µM, first compound 0.0316 µM", "result": 88.1, "unit": "%"}, {"measurement": "viability, T/C", "setting": "second compound 0.316 µM, first compound 0.1 µM", "result": 85.3, "unit": "%"}, {"measurement": "viability, T/C", "setting": "second compound 0.316 µM, first compound 0.316 µM", "result": 59.4, "unit": "%"}, {"measurement": "viability, T/C", "setting": "second compound 0.316 µM, first compound 1 µM", "result": 20.4, "unit": "%"}, {"measurement": "viability, T/C", "setting": "second compound 0.316 µM, first compound 3.16 µM", "result": 16.6, "unit": "%"}, {"measurement": "viability, T/C", "setting": "second compound 0.316 µM, first compound 10 µM", "result": 16.1, "unit": "%"}, {"measurement": "viability, T/C", "setting": "second compound 1 µM, first compound 0.0316 µM", "result": 90.8, "unit": "%"}, {"measurement": "viability, T/C", "setting": "second compound 1 µM, first compound 0.1 µM", "result": 75.5, "unit": "%"}, {"measurement": "viability, T/C", "setting": "second compound 1 µM, first compound 0.316 µM", "result": 54, "unit": "%"}, {"measurement": "viability, T/C", "setting": "second compound 1 µM, first compound 1 µM", "result": 18.6, "unit": "%"}, {"measurement": "viability, T/C", "setting": "second compound 1 µM, first compound 3.16 µM", "result": 14, "unit": "%"}, {"measurement": "viability, T/C", "setting": "second compound 1 µM, first compound 10 µM", "result": 17, "unit": "%"}, {"measurement": "viability, T/C", "setting": "second compound 3.16 µM, first compound 0.0316 µM", "result": 88.4, "unit": "%"}, {"measurement": "viability, T/C", "setting": "second compound 3.16 µM, first compound 0.1 µM", "result": 88.9, "unit": "%"}, {"measurement": "viability, T/C", "setting": "second compound 3.16 µM, first compound 0.316 µM", "result": 52.4, "unit": "%"}, {"measurement": "viability, T/C", "setting": "second compound 3.16 µM, first compound 1 µM", "result": 20.3, "unit": "%"}, {"measurement": "viability, T/C", "setting": "second compound 3.16 µM, first compound 3.16 µM", "result": 17, "unit": "%"}, {"measurement": "viability, T/C", "setting": "second compound 3.16 µM, first compound 10 µM", "result": 13.7, "unit": "%"}, {"measurement": "viability, T/C", "setting": "second compound 10 µM, first compound 0.0316 µM", "result": 97.4, "unit": "%"}, {"measurement": "viability, T/C", "setting": "second compound 10 µM, first compound 0.1 µM", "result": 79.1, "unit": "%"}, {"measurement": "viability, T/C", "setting": "second compound 10 µM, first compound 0.316 µM", "result": 47.7, "unit": "%"}, {"measurement": "viability, T/C", "setting": "second compound 10 µM, first compound 1 µM", "result": 18.9, "unit": "%"}, {"measurement": "viability, T/C", "setting": "second compound 10 µM, first compound 3.16 µM", "result": 23, "unit": "%"}, {"measurement": "viability, T/C", "setting": "second compound 10 µM, first compound 10 µM", "result": 14.2, "unit": "%"}]}
